These results are taken from ChEMBL document CHEMBL5375995, “Discovery and Mechanistic Study of Novel Mycobacterium tuberculosis ClpP1P2 Inhibitors” (J Med Chem, 2023).

≈ marks a conversion by molar mass, not a printed value. Calls of active or inactive are those of the source. Some results are limits rather than exact numbers.

Experiment [1] deals with T1, ClpP1P2 (Mycobacterium tuberculosis (strain ATCC 25618 / H37Rv), UniProt P9WPC3+P9WPC5). The experiment is described as follows: Inhibition of N-terminal His6-SUMO-tagged Mtb ClpP1 (7 to 200 residues)/ClpP2 (13 to 214 residues) complex expressed in Escherichia coli BL21(DE3) using FITC-casein as substrate measured for 1 hr in presence of Bz-LL/ATP by fluorescence based assay.
T1 sequence (P9WPC5 whole entry, the tested form may be a part): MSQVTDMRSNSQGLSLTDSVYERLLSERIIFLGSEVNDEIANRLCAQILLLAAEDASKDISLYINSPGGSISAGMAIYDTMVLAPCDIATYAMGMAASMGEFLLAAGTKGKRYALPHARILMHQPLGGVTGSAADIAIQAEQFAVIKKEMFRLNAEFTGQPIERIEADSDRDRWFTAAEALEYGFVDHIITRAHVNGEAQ
T1 sequence (P9WPC3 whole entry, the tested form may be a part): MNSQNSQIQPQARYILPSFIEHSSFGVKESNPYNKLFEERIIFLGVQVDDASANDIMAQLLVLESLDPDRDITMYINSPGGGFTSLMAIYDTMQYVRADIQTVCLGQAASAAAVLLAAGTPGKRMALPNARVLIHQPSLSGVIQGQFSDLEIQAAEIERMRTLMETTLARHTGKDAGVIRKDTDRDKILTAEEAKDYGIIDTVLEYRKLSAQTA

Experiment [2] has as its target T1, ClpP1P2. Kind of experiment: Inhibition of N-terminal His6-SUMO-tagged Mtb ClpP1 (7 to 200 residues)/ClpP2 (13 to 214 residues) complex expressed in Escherichia coli BL21(DE3) using Z-Gly-Gly-Leu-AMC as substrate measured for 60 mins in presence of Bz-LL by fluorescence based assay.
For experiment [3], the system named is Mycobacterium tuberculosis. The experiment is described as follows: Antibacterial activity against Mycobacterium tuberculosis H37Ra assessed as bacterial growth inhibition incubated for 24 hrs by broth microdilution method. Format: functional. (In broth dilution the organism is exposed to a series of concentrations in liquid medium.)
Experiment [4] addresses T2, ClpP1P2 (Mycobacterium tuberculosis (strain ATCC 25618 / H37Rv)) (UniProt P9WPC5+P9WPC3). The experiment is described as follows: Binding affinity to ClpP1 in Mtb H37Ra lysate at 5 mM incubated for 4 hrs by affinity based capture method. Format: subcellular.
Experiment [5] can be described thus: Selectivity index, ratio of IC50 for full-length human ClpP complex ([…]) expressed in Escherichia coli BL21(DE3) using Ac-WLA-AMC as substrate to IC50 for N-terminal His6-SUMO-tagged Mtb ClpP1 (7 to 200 residues)/ClpP2 (13 to 214 residues) complex expressed in Escherichia coli BL21(DE3) using Z-Gly-Gly-Leu-AMC as substrate.
Experiment [6] deals with Mycobacterium tuberculosis. The experiment is described as follows: Binding affinity to N-terminal His6-SUMO-tagged Mtb ClpP1 (7 to 200 residues)/ClpP2 (13 to 214 residues) complex expressed in Escherichia coli BL21(DE3) assessed as reduction in fluorescence intensity at 25 to 100 uM incubated for 30 mins in presence of Bz-LL by spectrophotometry relative to control. Set-up: scale not given: the % may be the effect or the level left. As to conditions: dose 25-100 µM.

A short description of experiment [7]: Inhibition of N-terminal His6-SUMO-tagged Mycobacterium smegmatis ClpP1 (3 to 200 residues)/P2 (17 to 218 residues) expressed in Escherichia coli BL21(DE3)/C1 using Z-Gly-Gly-Leu-AM as substrate measured for 60 mins in presence of Bz-LL by fluorescence based assay. Set-up: species or system Mycolicibacterium smegmatis.
The target in experiment [8] is ATP-dependent Clp protease ATP-binding subunit ClpC1 (Mycobacterium tuberculosis) (UniProt P9WPC9). Kind of experiment: Inhibition of N-terminal His6-tagged full-length Mtb ClpC1 ATPase activity expressed in Escherichia coli BL21(DE3) at 100 uM in presence of PK/LDH/ATP/NADH by spectrophotometry.
ATP-dependent Clp protease ATP-binding subunit ClpC1 (Mycobacterium tuberculosis), sequence (P9WPC9 whole entry, the tested form may be a part): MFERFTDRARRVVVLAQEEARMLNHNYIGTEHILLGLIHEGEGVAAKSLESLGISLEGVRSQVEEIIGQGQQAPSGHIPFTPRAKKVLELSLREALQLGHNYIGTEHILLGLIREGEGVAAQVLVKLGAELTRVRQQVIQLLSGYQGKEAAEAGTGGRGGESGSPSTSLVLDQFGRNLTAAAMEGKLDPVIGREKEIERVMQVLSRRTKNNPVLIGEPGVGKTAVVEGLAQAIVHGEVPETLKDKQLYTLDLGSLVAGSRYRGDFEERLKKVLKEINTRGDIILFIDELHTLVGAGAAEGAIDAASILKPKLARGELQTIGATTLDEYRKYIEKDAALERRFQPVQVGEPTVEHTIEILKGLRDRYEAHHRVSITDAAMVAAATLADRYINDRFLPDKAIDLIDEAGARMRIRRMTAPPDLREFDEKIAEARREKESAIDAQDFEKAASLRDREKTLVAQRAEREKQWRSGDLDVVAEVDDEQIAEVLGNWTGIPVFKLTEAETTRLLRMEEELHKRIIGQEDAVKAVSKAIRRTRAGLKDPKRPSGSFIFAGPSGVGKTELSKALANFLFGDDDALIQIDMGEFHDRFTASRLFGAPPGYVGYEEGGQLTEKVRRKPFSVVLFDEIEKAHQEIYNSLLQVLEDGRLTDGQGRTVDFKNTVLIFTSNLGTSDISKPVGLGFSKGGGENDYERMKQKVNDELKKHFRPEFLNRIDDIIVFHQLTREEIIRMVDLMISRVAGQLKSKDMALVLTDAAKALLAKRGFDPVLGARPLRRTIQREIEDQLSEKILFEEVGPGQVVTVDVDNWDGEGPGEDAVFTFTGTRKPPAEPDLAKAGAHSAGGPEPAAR
The target of experiment [9] is T2, ClpP1P2 (Mycobacterium tuberculosis (strain ATCC 25618 / H37Rv)). The experiment is described as follows: Binding affinity to N-terminal His6-SUMO-tagged Mtb ClpP1 (7 to 200 residues) expressed in Escherichia coli BL21(DE3) assessed as reduction in fluorescence intensity at 25 to 100 uM incubated for 30 mins in presence of Bz-LL by spectrophotometry relative to control. Set-up: scale not given: the % may be the effect or the level left. As to conditions: dose 25-100 µM.

Experiment [10] concerns the target T1, ClpP1P2. Kind of experiment: Binding affinity to N-terminal His6-SUMO-tagged Mtb ClpP1 (7 to 200 residues)/ClpP2 (13 to 214 residues) complex expressed in Escherichia coli BL21(DE3) assessed as increase in thermal stability measured at 25 to 110 degreeC in presence of Bz-LL by DSF assay. On the technique in general: DSF heats the sample and reads unfolding from a dye or from intrinsic fluorescence.

In experiment [11] the test system is Mycolicibacterium smegmatis. The experiment is described as follows: Antibacterial activity against Mycobacterium smegmatis mc2 155 harboring ClpC1 knockout assessed as bacterial growth inhibition incubated for 2 days by Alamar blue staining based assay. As to conditions: mc2 155, 48 h, time 2 day. It is filed as functional.
Experiment [12] in a line: Inhibition of N-terminal His6-SUMO-tagged Mycobacterium smegmatis ClpP1 (3 to 200 residues)/P2 (17 to 218 residues) expressed in Escherichia coli BL21(DE3) using Z-Gly-Gly-Leu-AM as substrate measured for 60 mins in presence of Bz-LL by fluorescence based assay. Set-up: species or system Mycolicibacterium smegmatis.
The subject of experiment [13] is Mycolicibacterium smegmatis. The experiment is described as follows: Antibacterial activity against wild-type Mycobacterium smegmatis mc2 155 assessed as bacterial growth inhibition upto 512 uM incubated for 2 days in presence of ATc by Alamar blue staining based assay. It is filed as functional, organism-based. The note with it: time 2.0 day. For orientation: The colour change of resazurin is a common sign of viable cells or microbes.

The subject of experiment [14] is Mycolicibacterium smegmatis. Kind of experiment: Antibacterial activity against wild-type Mycobacterium smegmatis mc2 155 assessed as bacterial growth inhibition incubated for 2 days by Alamar blue staining based assay. Format: functional. As to conditions: mc2 155, 48 h, time 2 day.
The target in experiment [15] is T1, ClpP1P2. The experiment is described as follows: Inhibition of N-terminal His6-SUMO-tagged Mtb ClpP1 (7 to 200 residues)/ClpP2 (13 to 214 residues) complex expressed in Escherichia coli BL21(DE3) using GFP-ssrA as substrate incubated for 3 hrs in presence of Bz-LL/ATP by Coomassie blue staining based assay.
The test system of experiment [16] is Mycolicibacterium smegmatis. Kind of experiment: Antibacterial activity against wild-type Mycobacterium smegmatis mc2 155 harboring ClpP-tetoff mutant assessed as bacterial growth inhibition upto 512 uM incubated for 2 days in presence of ATc by Alamar blue staining based assay. Format: functional, organism-based. The note with it: time 2.0 day.
Experiment [17] in a line: Inhibition of Staphylococcus aureus […] complex expressed in Escherichia coli BL21(DE3) using GFP-ssrA as substrate incubated for 3 hrs in presence of Bz-LL/ATP/ONC212 by Coomassie blue staining based assay.
Experiment [18] can be described thus: Selectivity index, ratio of IC50 for full-length human ClpP complex ([…]) expressed in Escherichia coli BL21(DE3) using FITC-casein as substrate to IC50 for N-terminal His6-SUMO-tagged Mtb ClpP1 (7 to 200 residues)/ClpP2 (13 to 214 residues) complex expressed in Escherichia coli BL21(DE3) using Z-Gly-Gly-Leu-AMC as substrate.
Experiment [19] addresses ATP-dependent Clp protease ATP-binding subunit ClpC1 (Mycobacterium tuberculosis) (UniProt P9WPC9). Kind of experiment: Inhibition of N-terminal His6-tagged full-length Mtb ClpC1 creatine kinase activity expressed in Escherichia coli BL21(DE3) using creatine phosphate as substrate at 100 uM preincubated for 10 mins followed by substrate addition measured after 10 mins in presence of ADP by Kinase-Glo assay. The note with it: time 20.0 min.

Experiment [20] relates to Mycolicibacterium smegmatis. The experiment is described as follows: Antibacterial activity against Mycobacterium smegmatis mc2 155 harboring ClpX knockout assessed as bacterial growth inhibition incubated for 2 days by Alamar blue staining based assay. The note with it: mc2 155, 48 h, time 2 day. It is filed as functional.
Experiment [21] addresses T2, ClpP1P2 (Mycobacterium tuberculosis (strain ATCC 25618 / H37Rv)). The experiment is described as follows: Inhibition of N-terminal His6-SUMO-tagged Mtb ClpP1 (7 to 200 residues)/ClpP2 (13 to 214 residues) complex expressed in Escherichia coli BL21(DE3) using GFP-ssrA as substrate measured for 1 hr in presence of Bz-LL/ATP by fluorescence based assay.
Experiment [22] has the same target. The experiment is described as follows: Inhibition of N-terminal His6-SUMO-tagged Mtb ClpP1 (7 to 200 residues)/ClpP2 (13 to 214 residues) complex expressed in Escherichia coli BL21(DE3) using Z-Gly-Gly-Leu-AMC as substrate at 10 uM incubated for 40 mins in presence of Bz-LL by fluorescence based assay.
Experiment [23] has as its system Escherichia coli. The experiment is described as follows: Antibacterial activity against Escherichia coli assessed as bacterial growth inhibition incubated for 24 hrs by broth microdilution method. It is filed as functional.
The test system of experiment [24] is Pseudomonas aeruginosa. The experiment is described as follows: Antibacterial activity against Pseudomonas aeruginosa assessed as bacterial growth inhibition incubated for 24 hrs by broth microdilution method. Format: functional.
Experiment [25] concerns Staphylococcus aureus. Kind of experiment: Antibacterial activity against Staphylococcus aureus assessed as bacterial growth inhibition incubated for 24 hrs by broth microdilution method. It is filed as functional.
Experiment [26] deals with Mycobacterium tuberculosis. Kind of experiment: Antibacterial activity against Mycobacterium tuberculosis H37Rv assessed as bacterial growth inhibition incubated for 24 hrs by broth microdilution method. Format: functional.

For `COc1cc2c(Oc3ccc4[nH]c(C)cc4c3F)ncnc2cc1O`, the figures for the IC50 in experiment [1] and in [2] were more than 100 µM and 45.3 µM, respectively. Further, the MIC in [3] was more than 118 µM.

`COc1cc2c(Nc3ccc4[nH]c(C)cc4c3F)ncnc2cc1OCCCN1CCCC1`: the IC50 in [1] and in experiment [2] was more than 100 µM in each case. The MIC in [3] was more than 89 µM.

For `COc1cc2c(Oc3ccc4cc[nH]c4c3)ncnc2cc1OCCCN1CCCC1`, the IC50 in experiment [1] and in experiment [2] was more than 100 µM in each case. Also, the MIC in [3] is more than 95.6 µM.

Consider `COc1cc2c(Oc3ccc4[nH]c(C)cc4c3F)ncnc2cc1OCCCN1CCC[C@@H](N)C1`, for which the IC50 in [1] stood at 19.1 µM; in experiment [2], 3.3 µM. The outcome in [4] was Active. Moreover, the MIC in [3] is 32 µM (≈ 15.3 µg/mL).

Regarding `COc1cc2c(OC)ncnc2cc1OCCCN1CCCC1`, the IC50 in experiment [1] and in experiment [2] was more than 100 µM in each case. In addition, the MIC in experiment [3] was more than 126 µM.

Turning to `COc1cc(C(=O)Nc2ccc3[nH]c(C)cc3c2F)ccc1OCCCN1CCCC1`, the IC50 was more than 100 µM in experiment [1] and 26.8 µM in experiment [2]. Further, the MIC in experiment [3] is more than 94 µM.

Take `COc1cc2c(Oc3ccc4[nH]c(C)cc4c3F)ncnc2cc1OCCCCl`: the IC50 in experiment [1] was more than 100 µM; in experiment [2] it was 49.2 µM. Moreover, the MIC in experiment [3] is more than 96.2 µM.

For the molecule `COc1cc2c(Oc3ccc4[nH]c(C)cc4c3F)ncnc2cc1OCCCN1CCC(c2ccc(C(N)=O)cc2)CC1`, the results for the Ratio IC50 in experiment [5] and in experiment [18] were 12.1 and 18.4, respectively. Further, the Activity is 60% in experiment [6] and 10% in experiment [9]. Also, the IC50 in experiment [7] is 22.1 µM; in experiment [1], 8.9 µM; in [12], 1.8 µM; in [2] it was 2.6 µM; in experiment [15], more than 100 µM; in experiment [17], 193 µM. For the same molecule, the inhibition result in experiment [8] and in experiment [19] was “inactive” in each case. Moreover, in [10], the EC50 worked out at 12.1 µM. Further, the MIC in experiment [11] is 42.8 µg/mL (≈ 73.3 µM); in experiment [14], more than 439 µg/mL; in experiment [20] it was 85.7 µg/mL (≈ 147 µM); in [3], 12.5 µM (≈ 7.3 µg/mL). The “growth inhibition (GI)” value in experiment [13] and in [16] was “Active” throughout. The inhibition result in [21] was “Active”.

On to `Cc1cc2c(F)c(Oc3ncnn4cc(OC[C@@H](C)O)c(C)c34)ccc2[nH]1` [BRIVANIB], for which the inhibition entry in experiment [8] and in experiment [19] was “inactive” throughout. Also, the inhibition entry in experiment [22] was “Active”. For the same molecule, the 50% inhibitory concentration (IC50) in experiment [1] was found to be 24.2 µM; in experiment [2], 6.9 µM.

As for `Oc1c(Cl)cc(Cl)c(Cl)c1Cc1c(O)c(Cl)cc(Cl)c1Cl` [HEXACHLOROPHENE], the inhibition result in [22] was “Active”. Also, the IC50 in experiment [2] is 4.9 µM.

As to `CC(=O)NC[C@H]1CN(c2ccc(N3CCOCC3)c(F)c2)C(=O)O1` [LINEZOLID], the MIC is more than 379 µM in [23]; more than 379 µM in experiment [24]; 5.9 µM in [14]; 5.9 µM (≈ 1.99 µg/mL) in experiment [25]; 0.2 µM (≈ 0.0675 µg/mL) in experiment [26]; 0.2 µM (≈ 0.0675 µg/mL) in experiment [3].

`CO[C@H]1/C=C/O[C@@]2(C)Oc3c(C)c(O)c4c(O)c(c(/C=N/N5CCN(C)CC5)c(O)c4c3C2=O)NC(=O)/C(C)=C\C=C\[C@H](C)[C@H](O)[C@@H](C)[C@@H](O)[C@@H](C)[C@H](OC(C)=O)[C@@H]1C` [RIFAMPIN]: the MIC turned out to be 4.9 µM (≈ 4.03 µg/mL) in experiment [23] and 38.9 µM (≈ 32 µg/mL) in experiment [24].

Broadly, the IC50 is the concentration that inhibits the measured activity by half. For orientation: MIC means the smallest concentration in the dilution series that meets the test's criterion for growth inhibition. What is called EC50 is the concentration at which the effect is half-maximal.
